According to publication PMC6591272, “Midostaurin Reverses ABCB1-Mediated Multidrug Resistance, an in vitro Study” (Frontiers in Oncology, 2019):

Key:
[1] = target: T1, ABCB1 transporter (P-gp/MDR1) (Homo sapiens, UniProt P08183); assay: vanadate-sensitive ATPase assay in ABCB1-overexpressing membranes; supported by [3H]-paclitaxel efflux inhibition in KB-C2 cells; assay type: biochemical; design: cell membranes that overexpressed ABCB1
[2] = target: T1, ABCB1 transporter (P-gp/MDR1)

T1 sequence (P08183 whole entry): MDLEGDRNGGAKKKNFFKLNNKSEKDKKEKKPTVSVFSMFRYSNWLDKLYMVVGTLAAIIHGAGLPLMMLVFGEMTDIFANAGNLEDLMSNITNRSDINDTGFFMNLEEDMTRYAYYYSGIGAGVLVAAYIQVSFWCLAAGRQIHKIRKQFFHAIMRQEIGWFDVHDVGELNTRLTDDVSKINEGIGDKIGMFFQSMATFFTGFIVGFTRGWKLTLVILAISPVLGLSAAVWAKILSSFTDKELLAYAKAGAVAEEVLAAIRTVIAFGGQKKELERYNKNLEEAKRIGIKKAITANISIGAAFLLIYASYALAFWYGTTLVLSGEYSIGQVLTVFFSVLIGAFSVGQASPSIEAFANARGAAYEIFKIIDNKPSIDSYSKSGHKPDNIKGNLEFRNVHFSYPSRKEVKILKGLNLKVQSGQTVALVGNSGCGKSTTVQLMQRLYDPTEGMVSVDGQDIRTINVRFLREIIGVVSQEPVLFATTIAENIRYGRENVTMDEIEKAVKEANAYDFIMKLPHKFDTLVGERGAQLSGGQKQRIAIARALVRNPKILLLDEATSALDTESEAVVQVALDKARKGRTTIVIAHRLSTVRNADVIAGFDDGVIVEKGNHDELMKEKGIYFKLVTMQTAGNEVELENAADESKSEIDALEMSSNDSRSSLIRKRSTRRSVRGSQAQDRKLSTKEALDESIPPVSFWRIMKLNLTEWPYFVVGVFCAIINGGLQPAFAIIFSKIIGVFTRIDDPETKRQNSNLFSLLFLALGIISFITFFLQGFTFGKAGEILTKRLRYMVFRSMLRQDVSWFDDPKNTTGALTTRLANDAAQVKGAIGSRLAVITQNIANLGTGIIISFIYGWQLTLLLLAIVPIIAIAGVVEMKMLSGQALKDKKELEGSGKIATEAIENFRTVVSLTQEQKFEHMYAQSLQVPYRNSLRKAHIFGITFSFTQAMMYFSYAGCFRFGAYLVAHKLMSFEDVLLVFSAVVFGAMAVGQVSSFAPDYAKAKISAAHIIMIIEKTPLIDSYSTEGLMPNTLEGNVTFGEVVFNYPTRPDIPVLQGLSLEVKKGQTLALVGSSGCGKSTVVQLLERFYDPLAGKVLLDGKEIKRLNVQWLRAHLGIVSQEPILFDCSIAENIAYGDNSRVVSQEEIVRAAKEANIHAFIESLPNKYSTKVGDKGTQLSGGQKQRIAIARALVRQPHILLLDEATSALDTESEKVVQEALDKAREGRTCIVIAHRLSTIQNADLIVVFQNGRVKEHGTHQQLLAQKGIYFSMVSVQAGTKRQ

In the case of `CO[C@@H]1[C@H](N(C)C(=O)c2ccccc2)C[C@H]2O[C@]1(C)n1c3ccccc3c3c4c(c5c6ccccc6n2c5c31)C(=O)NC4` [midostaurin], the IC50 [1] is reported as 3.1 µM.

With `CC(=O)O[C@H]1C(=O)[C@@]2(C)[C@H]([C@H](OC(=O)c3ccccc3)[C@]3(O)C[C@H](OC(=O)[C@H](O)[C@@H](NC(=O)c4ccccc4)c4ccccc4)C(C)=C1C3(C)C)[C@]1(OC(C)=O)CO[C@@H]1C[C@@H]2O` [paclitaxel] the “[3H]-paclitaxel accumulation and efflux in KB-C2 versus parental KB-3-1 cells” value [2] was “midostaurin significantly decreased the efflux level of [^3H]-paclitaxel in ABCB1-overexpressing KB-C2 cells in a dose-dependent manner”.
